In US12545680B2, “Substituted oxaspiro[4.5]decanes as mor receptor agonists” (SHANGHAI HAIYAN PHARMACEUTICAL TECHNOLOGY CO., LTD., priority 2020, dated 2026):
Read-outs that look alike come from different tables or passages of the source.

Assays:
[1] = target: T1, MOR receptor (OPRM1) (Homo sapiens, UniProt P35372); test: HTRF-cAMP cell experiment; conditions: for cAMP Emax (%) Morphine was 100% / EC50: PathHunter CHO-K1 OPRM1 β-Arrestin cell line; for cAMP Emax (%) Morphine was 100% / Emax: maximum effect relative to morphine = 100%; for EC50: NKH477-stimulated cAMP, HTRF; for Emax: read-out: cAMP Emax (%) Morphine was 100%, PathHunter CHO-K1 OPRM1 β-Arrestin cell line
[2] = target: T1, MOR receptor (OPRM1); test: β-Arrestin cell experiment; conditions: maximum effect relative to morphine = 100%; for β-arrestin Emax (%) Morphine was 100%: PathHunter CHO-K1 OPRM1 β-Arrestin cell line; for Emax: read-out: β-arrestin Emax (%) Morphine was 100%, PathHunter CHO-K1 OPRM1 β-Arrestin cell line

T1 sequence (P35372 whole entry): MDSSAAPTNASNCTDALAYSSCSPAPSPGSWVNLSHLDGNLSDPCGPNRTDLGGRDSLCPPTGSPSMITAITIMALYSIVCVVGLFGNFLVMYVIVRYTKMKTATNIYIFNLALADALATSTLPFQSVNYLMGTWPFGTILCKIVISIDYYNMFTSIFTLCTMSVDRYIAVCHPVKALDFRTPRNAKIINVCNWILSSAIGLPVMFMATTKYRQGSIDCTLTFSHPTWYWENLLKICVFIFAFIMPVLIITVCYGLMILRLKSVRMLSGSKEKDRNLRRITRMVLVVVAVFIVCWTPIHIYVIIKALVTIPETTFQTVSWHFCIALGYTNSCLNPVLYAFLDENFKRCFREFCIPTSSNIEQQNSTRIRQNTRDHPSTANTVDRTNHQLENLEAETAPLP

| SMILES | cAMP Emax (%) Morphine was 100% [1] | EC50 ([1]; cAMP EC50 (nM)) | β-arrestin Emax (%) Morphine was 100% [2] | Emax [2] | EC50 ([1]; read-out: cAMP EC50) | Emax [1] |
| --- | --- | --- | --- | --- | --- | --- |
| CCC1CC(NCC[C@@]2(c3ccccn3)CCOC3(CCCC3)C2)c2ccnn21 (mixture of isomers) [Compound H-4-1, 6-ethyl-N-(2-((R)-9-(pyridin-2-yl)-6-oxaspiro[4.5]decan-9-yl)ethyl)-5,6-dihydro-4H-pyrrolo[1,2-b]pyrazol-4-amine] | 64.1% | 8 nM | 1.8% | – | – | – |
| CCC1CC(NCC[C@@]2(c3ccccn3)CCOC3(CCCC3)C2)c2ccnn21 (mixture of isomers) [Compound H-4-2, 6-ethyl-N-(2-((R)-9-(pyridin-2-yl)-6-oxaspiro[4.5]decan-9-yl)ethyl)-5,6-dihydro-4H-pyrrolo[1,2-b]pyrazol-4-amine] | 91.8% | 18 nM | 4.8% | – | – | – |
| CC1CC(NCC[C@@]2(c3ccccn3)CCOC3(CCCC3)C2)c2ccnn21 (mixture of isomers) [Compound H-12-1, 6-methyl-N-(2-((R)-9-(pyridin-2-yl)-6-oxaspiro[4.5]decan-9-yl)ethyl)-5,6-dihydro-4H-pyrrolo[1,2-b]pyrazol-4-amine] | 99.5% | 12 nM | – | 12% | – | – |
| CC1CC(NCC[C@@]2(c3ccccn3)CCOC3(CCCC3)C2)c2ccnn21 (mixture of isomers) [Compound H-12-2, 6-methyl-N-(2-((R)-9-(pyridin-2-yl)-6-oxaspiro[4.5]decan-9-yl)ethyl)-5,6-dihydro-4H-pyrrolo[1,2-b]pyrazol-4-amine] | 77.8% | – | 15.7% | – | 12 nM | – |
| c1ccc([C@]2(CCNC3CCn4nccc43)CCOC3(CCCC3)C2)nc1 (stereo partly drawn) [Compound H-1, N-(2-((R)-9-(pyridin-2-yl)-6-oxaspiro[4.5]decan-9-yl)ethyl)-5,6-dihydro-4H-pyrrolo[1,2-b]pyrazol-4-amine] | – | 49 nM | – | 29.7% | – | 125% |
| COC(C)(C)C1CC(NCC[C@@]2(c3ccccn3)CCOC3(CCCC3)C2)c2ccnn21 (stereo partly drawn) [Compound H-2, 6-(2-methoxypropan-2-yl)-N-(2-((R)-9-(pyridin-2-yl)-6-oxaspiro[4.5]decan-9-yl)ethyl)-5,6-dihydro-4H-pyrrolo[1,2-b]pyrazol-4-amine] | – | 47 nM | – | 6.2% | – | 93.2% |
| c1ccc([C@]2(CCNC3CC(C4CC4)n4nccc43)CCOC3(CCCC3)C2)nc1 (stereo partly drawn) [Compound H-3, 6-cyclopropyl-N-(2-((R)-9-(pyridin-2-yl)-6-oxaspiro[4.5]decan-9-yl)ethyl)-5,6-dihydro-4H-pyrrolo[1,2-b]pyrazol-4-amine] | – | 17 nM | – | 4.9% | – | 74.6% |
| c1ccc([C@]2(CCNC3CC(C4CCCC4)n4nccc43)CCOC3(CCCC3)C2)nc1 (stereo partly drawn) [Compound H-5, 6-cyclopentyl-N-(2-((R)-9-(pyridin-2-yl)-6-oxaspiro[4.5]decan-9-yl)ethyl)-5,6-dihydro-4H-pyrrolo[1,2-b]pyrazol-4-amine] | – | – | – | 4.8% | – | – |
| CC(C)(C)C1CC(NCC[C@@]2(c3ccccn3)CCOC3(CCCC3)C2)c2ccnn21 (stereo partly drawn) [Compound H-6, 6-tert-butyl-N-(2-((R)-9-(pyridin-2-yl)-6-oxaspiro[4.5]decan-9-yl)ethyl)-5,6-dihydro-4H-pyrrolo[1,2-b]pyrazol-4-amine] | – | 9 nM | – | 15.3% | – | 99.6% |
| CC(C)(F)C1CC(NCC[C@@]2(c3ccccn3)CCOC3(CCCC3)C2)c2ccnn21 (stereo partly drawn) [Compound H-7, 6-(2-fluoropropan-2-yl)-N-(2-((R)-9-(pyridin-2-yl)-6-oxaspiro[4.5]decan-9-yl)ethyl)-5,6-dihydro-4H-pyrrolo[1,2-b]pyrazol-4-amine] | – | 29 nM | – | 22.1% | – | 105% |
| CC(C)C1CC(NCC[C@@]2(c3ccccn3)CCOC3(CCCC3)C2)c2c(F)cnn21 (stereo partly drawn) [Compound H-9, 3-fluoro-6-isopropyl-N-(2-((R)-9-(pyridin-2-yl)-6-oxaspiro[4.5]decan-9-yl)ethyl)-5,6-dihydro-4H-pyrrolo[1,2-b]pyrazol-4-amine] | – | – | – | 1% | – | – |
| CC1(C2CC(NCC[C@@]3(c4ccccn4)CCOC4(CCCC4)C3)c3ccnn32)CC1 (stereo partly drawn) [Compound H-10, 6-(1-methylcyclopropyl)-N-(2-((R)-9-(pyridin-2-yl)-6-oxaspiro[4.5]decan-9-yl)ethyl)-5,6-dihydro-4H-pyrrolo[1,2-b]pyrazol-4-amine] | – | 11 nM | – | 5.1% | – | 74.7% |
| CC(C)C1CC(NCC[C@@]2(c3ccccn3)CCOC3(CCCC3)C2)c2ccnn21 (stereo partly drawn) [Compound H-11, 6-(isopropyl)-N-(2-((R)-9-(pyridin-2-yl)-6-oxaspiro[4.5]decan-9-yl)ethyl)-5,6-dihydro-4H-pyrrolo[1,2-b]pyrazol-4-amine] | – | 15 nM | – | 4.3% | – | 84.8% |
| CCCC1CC(NCC[C@@]2(c3ccccn3)CCOC3(CCCC3)C2)c2ccnn21 (stereo partly drawn) [Compound H-14, 6-propyl-N-(2-((R)-9-(pyridin-2-yl)-6-oxaspiro[4.5]decan-9-yl)ethyl)-5,6-dihydro-4H-pyrrolo[1,2-b]pyrazol-4-amine] | – | 31 nM | – | 7.2% | – | 73% |
| CCC(C)C1CC(NCC[C@@]2(c3ccccn3)CCOC3(CCCC3)C2)c2ccnn21 (stereo partly drawn) [Compound H-15, 6-(sec-butyl)-N-(2-((R)-9-(pyridin-2-yl)-6-oxaspiro[4.5]decan-9-yl)ethyl)-5,6-dihydro-4H-pyrrolo[1,2-b]pyrazol-4-amine] | – | 84 nM | – | – | – | 64.9% |
| FC(F)(F)C1(C2CC(NCC[C@@]3(c4ccccn4)CCOC4(CCCC4)C3)c3ccnn32)CC1 (stereo partly drawn) [Compound H-17, N-(2-((R)-9-(pyridin-2-yl)-6-oxaspiro[4.5]decan-9-yl)ethyl)-6-(1-(trifluoromethyl)cyclopropyl)-5,6-dihydro-4H-pyrrolo[1,2-b]pyrazol-4-amine] | – | 31 nM | – | 2.6% | – | 68.6% |
| CC(C)(C1CC(NCC[C@@]2(c3ccccn3)CCOC3(CCCC3)C2)c2ccnn21)C(F)(F)F (stereo partly drawn) [Compound H-18, N-(2-((R)-9-(pyridin-2-yl)-6-oxaspiro[4.5]decan-9-yl)ethyl)-6-(1,1,1,-trifluoro-2-methylprop-2-yl)-5,6-dihydro-4H-pyrrolo[1,2-b]pyrazol-4-amine] | 89.1% | – | – | – | 68 nM | – |
| c1ccc([C@]2(CCNC3CC4(CCCC4)n4nccc43)CCOC3(CCCC3)C2)nc1 (stereo partly drawn) [Compound H-19, N-(2-((R)-9-(pyridin-2-yl)-6-oxaspiro[4.5]decan-9-yl)ethyl)-4′,5′-dihydrospiro[cyclopentane-1,6′-pyrrolo[1,2-b]pyrazol]-4′-amine] | – | 21 nM | – | 17.3% | – | 94.1% |
| c1ccc([C@]2(CCNC3CC4(CCOCC4)n4nccc43)CCOC3(CCCC3)C2)nc1 (stereo partly drawn) [Compound H-20, N-(2-((R)-9-(pyridin-2-yl)-6-oxaspiro[4.5]decan-9-yl)ethyl)-2,3,4′,5,5′,6-hexahydrospiro[pyran-4,6′-pyrrolo[1,2-b]pyrazol]-4′-amine] | – | 4 nM | – | – | – | 107% |
| c1ccc([C@]2(CCNC3CC4(CCC4)n4nccc43)CCOC3(CCCC3)C2)nc1 (stereo partly drawn) [Compound H-21, N-(2-((R)-9-(pyridin-2-yl)-6-oxaspiro[4.5]decan-9-yl)ethyl)-4′,5′-dihydrospiro[cyclobutane-1,6′-pyrrolo[1,2-b]pyrazol]-4′-amine] | – | 22 nM | – | 8% | – | 70.8% |
| CC1(C)CC(NCC[C@@]2(c3ccccn3)CCOC3(CCCC3)C2)c2ccnn21 (stereo partly drawn) [Compound H-22, 6,6-dimethyl-N-(2-((R)-9-(pyridin-2-yl)-6-oxaspiro[4.5]decan-9-yl)ethyl)-5,6-dihydro-4H-pyrrolo[1,2-b]pyrazol-4-amine] | – | 11 nM | – | 39.9% | – | 104% |
